Molecular target: T1, telomerase (MCF-7 cell lysates) (Homo sapiens, UniProt O14746)
T1 construct: endogenous in cells; host or cells: MCF-7
Assay: TRAP assay in cell lysates (PCR-based telomerase activity assay)
Assay type: biochemical
Conditions: TRAP assay in MCF7 cell lysate in vitro; read-out: IC50
Source text: In developing a preliminary structural activity relationship (SAR) for the chrologs, we divided the structure of the pyran into four main components: (1)C-2 substituents (carboxylic acid of chrolactomycin); (2) C-6 substituents (chrolactomycin macrolide loop); (3) C-3 substituents (fused γ-lactone of chrolactomycin) and (4) inclusion of the exocyclic methylene group. We carried out systematic modifications of each structural unit and evaluated the effects on telomerase activity as measured by a PCR-based telomerase activity assay (TRAP assay).^16
Telomeric Repeat Amplification Protocol Assay. The telomeric repeat amplification protocol (TRAP) assay was performed using the TRAPeze RT Telomerase Detection Kit (EMD Millipore) and iTaq DNA polymerase (Bio-Rad) according to the manufacturer's protocol.
Cell Lysate TRAP Analysis. MCF-7, HeLa, ACHN, MDA-MB231 and A549 cells were cultured in DMEM media supplemented with 10% Fetal Bovine Serum (FBS), 1% pen/strep and with 5% CO2 and 37° C. Cells were plated in 2×T75 flasks and cultured for 3 days. Flasks were rinsed twice with PBS and treated with 0.05% trypsin-EDTA (Thermo Fisher) to detach cells. […] Cell extracts were transferred to microcentrifuge tubes, 200 μl/tube, and centrifuged at 12,000×g for 20 min at 4° C. to remove cell debris. Stock solutions of compounds were made in DMSO with a concentration of 100 mM and a […] dilution was performed in DMSO in a 96-well plate to produce compound solutions of 100, 10, 1, 0.1, 0.01, and 0.001 mM (1000× of the final concentration). The 1000× stock solutions of the compound samples were transferred to a 96-well plate using the Echo 550 (Labcyte) and then diluted with the cell extracts to yield final compound concentrations of 100, 10, 1, 0.1, 0.01, and 0.001 μM. The plate was covered and shaken at room temperature for 30 min. For TRAPeze reactions, a “master mix” was prepared according to the TRAPeze protocol, containing 5 μl of the TRAPeze reaction mix; 0.4 μl Taq polymerase; 17.6 μl PCR grade, nuclease-free water. The master mix and treated cell extracts were transferred using the Mosquito Crystal Liquid Handling System (TTP Labtech) into separate wells in a white, 384-well RT-PCR plate. Each well contained 1.2 μl of the master mix and 1.2 μl of the treated cell extract to give a final volume of 2.4 μl, with two duplicates for each sample. The RT-PCR plate was then sealed and centrifuged for 5 min. A sample containing only CHAPS Lysis Buffer was included as negative control. The TSR8 standards were included to generate a standard curve. Samples were amplified in a CFW384 RT-PCR (BioRad) detection system with PCR parameters of 30 min at 30° C. for 1 cycle, 2 min at 95° C. for 1 cycle, and then 45 cycles of 15 s at 94° C., 60 s at 59° C., and 10 s at 45° C. Real-time fluorescent data was obtained during the 10 s at 45° C. step. The number of cycles at which the fluorescence level reached a threshold (Ct) was averaged between the duplicates for each sample. Using a calibration curve obtained from the TSR8 standards, a linear equation was obtained to convert the Ct values into arbitrary telomerase activity units, which were plotted as a function of compound concentration to construct dose-response curves and calculate IC50.

T1 sequence (O14746 whole entry): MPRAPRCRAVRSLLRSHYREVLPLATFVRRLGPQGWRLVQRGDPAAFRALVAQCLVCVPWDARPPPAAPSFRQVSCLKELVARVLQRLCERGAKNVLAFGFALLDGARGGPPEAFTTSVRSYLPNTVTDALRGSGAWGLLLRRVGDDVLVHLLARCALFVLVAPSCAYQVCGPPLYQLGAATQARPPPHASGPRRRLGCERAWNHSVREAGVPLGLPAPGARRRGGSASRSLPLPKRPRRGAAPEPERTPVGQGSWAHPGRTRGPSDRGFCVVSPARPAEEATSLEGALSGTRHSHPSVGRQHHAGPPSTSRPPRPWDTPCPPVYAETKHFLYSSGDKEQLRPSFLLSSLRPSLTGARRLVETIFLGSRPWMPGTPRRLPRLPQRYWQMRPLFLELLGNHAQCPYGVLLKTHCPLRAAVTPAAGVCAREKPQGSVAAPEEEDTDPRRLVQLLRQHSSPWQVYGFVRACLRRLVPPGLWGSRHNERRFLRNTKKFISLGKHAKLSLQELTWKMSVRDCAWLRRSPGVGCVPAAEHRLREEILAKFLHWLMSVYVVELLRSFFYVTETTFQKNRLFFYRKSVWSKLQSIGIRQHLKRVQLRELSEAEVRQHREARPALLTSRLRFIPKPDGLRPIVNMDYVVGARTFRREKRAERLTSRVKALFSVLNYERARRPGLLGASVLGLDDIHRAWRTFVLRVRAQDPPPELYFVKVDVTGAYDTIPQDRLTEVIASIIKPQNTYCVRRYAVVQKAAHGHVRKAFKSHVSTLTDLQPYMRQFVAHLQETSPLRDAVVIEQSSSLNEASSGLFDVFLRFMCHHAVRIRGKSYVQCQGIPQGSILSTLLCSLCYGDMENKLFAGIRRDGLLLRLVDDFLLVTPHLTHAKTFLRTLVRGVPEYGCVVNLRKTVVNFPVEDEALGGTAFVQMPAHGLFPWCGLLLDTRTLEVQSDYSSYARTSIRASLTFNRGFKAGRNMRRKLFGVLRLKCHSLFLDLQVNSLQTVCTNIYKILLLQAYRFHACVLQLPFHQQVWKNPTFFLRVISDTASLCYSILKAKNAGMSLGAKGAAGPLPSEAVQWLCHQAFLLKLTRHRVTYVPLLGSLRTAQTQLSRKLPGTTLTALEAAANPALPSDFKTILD
T1 sequence (O60832 whole entry partner): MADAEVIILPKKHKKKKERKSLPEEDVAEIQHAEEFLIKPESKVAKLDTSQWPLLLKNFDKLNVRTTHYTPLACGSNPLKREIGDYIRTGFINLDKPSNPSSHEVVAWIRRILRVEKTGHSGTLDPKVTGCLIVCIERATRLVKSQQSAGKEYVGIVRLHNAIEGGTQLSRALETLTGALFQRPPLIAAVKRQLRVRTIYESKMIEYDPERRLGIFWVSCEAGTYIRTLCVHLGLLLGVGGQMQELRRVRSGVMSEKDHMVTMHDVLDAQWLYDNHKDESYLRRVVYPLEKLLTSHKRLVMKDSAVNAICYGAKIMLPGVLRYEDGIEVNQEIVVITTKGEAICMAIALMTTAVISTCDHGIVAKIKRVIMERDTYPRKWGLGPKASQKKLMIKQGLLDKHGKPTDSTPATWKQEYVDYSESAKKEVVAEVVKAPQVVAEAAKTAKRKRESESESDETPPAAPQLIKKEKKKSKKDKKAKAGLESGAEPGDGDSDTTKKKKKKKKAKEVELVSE
T1 sequence (Q9NPE3 whole entry partner): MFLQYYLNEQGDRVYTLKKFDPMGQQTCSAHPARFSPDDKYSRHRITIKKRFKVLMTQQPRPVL
T1 sequence (Q9NX24 whole entry partner): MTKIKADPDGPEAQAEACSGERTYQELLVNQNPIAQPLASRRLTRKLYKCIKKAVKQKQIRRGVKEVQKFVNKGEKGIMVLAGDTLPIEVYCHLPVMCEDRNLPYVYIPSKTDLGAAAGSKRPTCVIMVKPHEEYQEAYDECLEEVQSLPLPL
T1 sequence (Q9NY12 whole entry partner): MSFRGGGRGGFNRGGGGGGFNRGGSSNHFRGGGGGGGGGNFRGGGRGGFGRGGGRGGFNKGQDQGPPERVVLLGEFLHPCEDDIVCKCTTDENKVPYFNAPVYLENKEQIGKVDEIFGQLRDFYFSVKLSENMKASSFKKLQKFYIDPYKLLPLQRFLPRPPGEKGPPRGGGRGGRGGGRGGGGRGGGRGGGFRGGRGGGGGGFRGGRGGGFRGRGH
T1 sequence (Q9BUR4 whole entry partner): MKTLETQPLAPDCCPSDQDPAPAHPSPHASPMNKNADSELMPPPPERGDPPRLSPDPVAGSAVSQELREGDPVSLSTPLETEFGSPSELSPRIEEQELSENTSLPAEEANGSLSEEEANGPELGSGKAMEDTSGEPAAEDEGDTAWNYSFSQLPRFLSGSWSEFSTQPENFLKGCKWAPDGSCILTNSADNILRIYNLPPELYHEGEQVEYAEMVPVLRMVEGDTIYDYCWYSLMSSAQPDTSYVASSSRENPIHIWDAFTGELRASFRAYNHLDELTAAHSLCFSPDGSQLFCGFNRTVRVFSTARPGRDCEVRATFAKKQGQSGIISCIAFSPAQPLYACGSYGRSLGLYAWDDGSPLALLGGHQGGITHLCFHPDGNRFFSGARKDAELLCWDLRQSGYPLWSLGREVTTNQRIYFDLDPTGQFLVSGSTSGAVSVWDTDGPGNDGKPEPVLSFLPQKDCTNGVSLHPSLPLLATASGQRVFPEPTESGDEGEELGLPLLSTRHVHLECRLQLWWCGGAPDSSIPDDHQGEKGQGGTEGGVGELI

- IC50: 90 nM
Structure (SMILES): C=C1C(=O)[C@](C)(C(=O)OC)[C@H](CCc2cn(Cc3ccc(F)cc3F)nn2)O[C@@H]1C [NU-1, methyl (2S,3R,6R)-2-(2-(1-(2,4-difluorobenzyl)-1H-1,2,3-triazol-4-yl)ethyl)-3,6-dimethyl-5 methylene-4-oxotetrahydro-2H-pyran-3-carboxylate]
